The test system of assay [1] is MKN1 cells. Put plainly: MKN1 CTG proliferation assay (120 h) (gastric cancer, wt amplified), assay 2. The class given is cell-based. The settings on record: Homo sapiens, MKN-1. As to the method: (§1) SAS cells (JCRB0260) are dispensed into 384-well plates, flat and clear bottom (Greiner, PNr. 781091) at a density of 300 cells per well in 60 μL DMEM:F12 (Gibco 31330-038)+10% Fetal Calf Serum (HyClone, PNr.: SH30084.03) and incubated at 37° C. in a CO2 incubator overnight The next day, compounds (10 mM stock in DMSO) are added with the ECHO acoustic liquid handler system (Beckman Coulter), including DMSO controls. Plates are incubated for 120 h, and cell viability is measured using CellTiter-Glo luminescent cell viability reagent (Promega product code G7570). Viability (stated as percent of control) is defined as relative luminescence units RLU of each well divided by the RLU of cells in DMSO controls.
(§2) MKN1 cells (JCRB0252) are dispensed into white 384-well plates, flat and white bottom (Perkin Elmer, 6007680) at a density of 500 cells per well in 40 μl RPMI (Gibco, PNr.: 21875034)+10% FCS (HyClone, PNr.: SH30084.03) (assay 1) or into black 384-well plates, flat and clear bottom (Greiner, PNr. 781091) at a density of 200 cells per well in 60 μl RPMI-1640 (Gibco #A10491)+10% FCS (HyClone, PNr.: SH30084.03)+PenStrep (Gibco, PNr.15140-122) (assay 2). […] Compounds (10 mM stock in DMSO) are added at logarithmic dose series using the HP Digital Dispenser D300 (Tecan) (assay 1) or the ECHO acoustic liquid handler system (Beckman Coulter) (assay 2), including DMSO controls and normalizing for added DMSO. Plates are incubated for 120 h, and cell viability is measured using CellTiter-Glo luminescent cell viability reagent (Promega product code G7570). Viability (stated as percent of control) is defined as relative luminescence units RLU of each well divided by the RLU of cells in DMSO controls.

For assay [2], the target named is T1, KRAS (G13D)::SOS1 (Homo sapiens, UniProt P01116, C118S/G13D).
T1 construct: KRAS (G13D) 1-169, N-terminal 6His-tag for purification, cleaved off; 6His-tag (N, cleaved yes); TEV cleavage site; made in house
Put plainly: KRAS::SOS1 AlphaScreen binding assay, KRAS G13D. An excerpt:
This assay can be used to examine the potency with which compounds according to the invention binding to (mutated) KRAS inhibit the protein-protein interaction between SOS1 and (mutated) KRAS e.g., KRAS WT, KRAS G12C, KRAS G12D, KRAS G12V, KRAS G13D. […] Low IC50 values in this assay setting are indicative of strong inhibition of protein-protein interaction between SOS1 and KRAS:
These assays measure the inhibitory effect of compounds on KRAS mutant protein-protein interactions using the Alpha Screen technology by Perkin Elmer […]
Plates are kept at room temperature in a darkened incubator. After an additional 60 minutes incubation time the signal is measured in a PerkinElmer Envision HTS Multilabel Reader using the AlphaScreen specs from PerkinElmer. […]
As internal control known inhibitors of KRAS mutant::SOS1 interaction can be measured on each compound plate. […]
For orientation: In Alpha technology, singlet oxygen from a donor bead excites a nearby acceptor bead.

Assay [3] concerns MKN1 cells. Put plainly: MKN1 CTG proliferation assay (120 h) (gastric cancer, wt amplified), assay 1. The class given is cell-based. The settings on record: Homo sapiens, MKN-1. The protocol: as §1, §2

T1 sequence (P01116 1-169 isoform P01116-2 G13D/C118S): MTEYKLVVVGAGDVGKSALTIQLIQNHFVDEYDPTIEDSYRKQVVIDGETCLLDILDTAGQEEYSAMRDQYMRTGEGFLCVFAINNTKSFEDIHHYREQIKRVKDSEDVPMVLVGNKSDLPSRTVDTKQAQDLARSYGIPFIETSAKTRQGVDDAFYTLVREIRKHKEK

Broadly, the IC50 is the concentration that gives 50% inhibition. High values mean weaker potency in that assay, low ones greater potency in that assay. Turning to `C[C@H](Oc1cc(Oc2cncnc2)nc(-c2noc3c2CCC[C@@]32CCCc3sc(N)c(C#N)c32)n1)[C@@H]1CCCN1C` [II-1], half-maximal inhibition in assay [1] (IC50) required 43 nM.

Consider `C[C@H](Oc1cc(OCC2(N(C)C)COC2)nc(-c2onc3c2CCC[C@@]32CCCc3sc(N)c(C#N)c32)n1)[C@@H]1CCCN1C` [Example I-8], for which the IC50 in assay [1] was 108 nM; in assay [2], 8 nM.

Take `C[C@H](Oc1cc(OCC2(N(C)C)COC2)nc(-c2noc3c2CCC[C@@]32CCCc3sc(N)c(C#N)c32)n1)[C@@H]1CCCN1C` [II-22]: the half-inhibitory concentration (IC50) in assay [3] was determined as 33 nM; in assay [2], 6 nM.

The compound `COc1c(OCC2(N(C)C)COC2)nc(-c2noc3c2CCC[C@@]32CCCc3sc(N)c(C#N)c32)nc1O[C@@H](C)[C@@H]1CCCN1C` [II-25] showed an IC50 in assay [2] of 8 nM.

Regarding `CO[C@@H]1C[C@@H]([C@H](C)Oc2cc(O[C@@H]3CNC3(C)C)nc(-c3noc4c3CCC[C@@]43CCCc4sc(N)c(C#N)c43)n2)N(C)C1` [II-30], half-maximal inhibition in assay [3] (IC50) was put at 223 nM.

The compound `C[C@H](Oc1cc(O[C@@H]2CNC2(C)C)nc(-c2noc3c2CCC[C@@]32CCCc3sc(N)c(C#N)c32)n1)[C@@H]1C[C@@H](F)CN1C` [II-31] registered an IC50 in assay [3] of 357 nM.

Consider `C[C@H](Oc1cc(O[C@@H]2CNC2(C)C)nc(-c2noc3c2CCC[C@@]32CCCc3sc(N)c(C#N)c32)n1)[C@@H]1CCCN1C` [II-9], for which, in assay [1], 129 nM corresponded to half-maximal inhibition (IC50).

`C[C@H](Oc1cc(Oc2cccnc2)nc(-c2onc3c2CCC[C@@]32CCCc3sc(N)c(C#N)c32)n1)[C@@H]1CCCN1C` [Example I-2] registered a half-maximal inhibitory concentration (IC50) in assay [1] of 109 nM.

Compound `C[C@H](Oc1cc(OCCO)nc(-c2noc3c2CCC[C@@]32CCCc3sc(N)c(C#N)c32)n1)[C@@H]1CCCN1C` [II-6] had an IC50 in assay [1] of 90 nM.

For the origin of these results see patent US20250129095A1, “ANNULATED 2-AMINO-3-CYANO THIOPHENES AND DERIVATIVES FOR THE TREATMENT OF CANCER” (Boehringer Ingelheim Int'l GmbH Corp., priority 2021, published 2025).
